According to patent US10982174B2, “Synergistic surfactant blends” (STEPAN COMPANY, priority 2012, dated 2021):

Assays:
Assay type in all cases: physicochemical
[1] = Critical micelle concentration (CMC) and beta parameter (synergy)
Procedure: Synergy can also be evaluated with respect to a blend's beta parameter (β), which can be calculated from the measured critical micelle concentration. Suitable methods for calculating β have been described previously (see, e.g., U.S. Pat. No. 5,360,571, the teachings of which are incorporated herein by reference).
Conveniently, the critical micelle concentration of a blend is measured at dilute concentrations in deionized water with pH adjusted to be within the range of 6 to 7. Critical micelle concentration generally refers to the minimum concentration of surfactant (in mg/L) needed to support micelle formation. The measurement can be performed, for instance, using a Krüss K12 tensiometer at 25° C. Once the critical micelle concentration is measured, the value of β can be found from:
where X is the total mole fraction of Surfactant 1 in the mixed micelles; α is the mole fraction of Surfactant 1 in solution; C1, C2, and C12 are the critical micelle concentrations of Surfactant 1, Surfactant 2, and their mixture; and β is the interaction parameter.
A negative value of β indicates synergy, while a positive value of β indicates antagonism, and values close to zero indicate little or no synergy.
The critical micelle concentration (CMC) of a blend is measured at a diluted concentration in deionized water with pH adjusted to 6-7. The measurement is done at 25° C. using a Kruss K100 tensiometer. The synergy of the blends, indicated by the beta parameter, is calculated based on the CMC data using the equation, β=[In(αA12/XA1)]/(1−X)^2 in which α is the mole fraction of the anionic surfactant in solution, X is the mole fraction of the anionic surfactant in mixed micelles, A1 is the critical micelle concentration of the anionic surfactant, and A12 is the critical micelle concentration of the blend.

[2] = Appearance / solubility of surfactant blends, neat and diluted with deionized water; details: SLS/Quat (molar) 0:1
Procedure: All of the surfactant blends tested are prepared at the designated molar ratios without any pH adjustment. Dilutions are made using deionized water to the desired actives level. Actives amounts are wt. % unless indicated otherwise. Appearances are reported at ambient temperature for samples prepared within the last 24 h.

[3] = Interfacial tension (IFT), pendant drop tensiometer, against light mineral oil; details: individual surfactant, ambient temperature, in mN/m (unit assumed)
Procedure: Interfacial tension is measured by any suitable method. […] The expected IFT value for a blend is calculated based on ideal mixing (non-synergistic) using the active component in each blend. The equation used is: Expected IFT=X·IFTA+(1−X)·IFTB where X is the actives % of Component A, IFTA is the IFT of Component A, and IFTB is the IFT of Component B.
If the measured IFT for a blend is less than the expected IFT, the blend is synergistic; if the measured IFT for a blend is greater than the expected IFT, the blend is antagonistic.
Interfacial tension (IFT) of all the individual components and their blends is measured at a given % active against light mineral oil at ambient temperature using a Kruss DSA-20 pendent drop tensiometer.

[4] = deionized water, pH 6-7, 25° C.

SMILES	Appearance 0.01% actives [2]	Appearance 0.2% actives [2]	Appearance concentrate [2]	IFT (0.1% actives) [3]	other results
C=CCCCCCCCC(=O)OCC[N+](C)(C)C [C10-7, C10 DMEA Ester Quat]					Surface tension at CMC (mN/m) [1]: 41.1 mN/m; CMC (mg/L) [1, 4]: 342.6 mg/L; CMC (mol/L) [1, 4]: 0.000932 mol/L
C=CCCCCCCCC(=O)NCCC[N+](C)(C)C [C10-18, C10 DMAPA Quat]	clear	clear	solid		
C=CCCCCCCCC(=O)OC(CCCCCCCC(=O)[O-])CS(=O)(=O)[O-].[Na+].[Na+] (centres unmarked) [C10-32, C10 UFA SLA]				25.9	
C=CCCCCCCCC[N+](C)(C)C [C10-42, C10 Amine DMS Quat]				42.0	
CC/C=C/CCCCCCCC(=O)NCCC[N+](C)(C)C [C12-18]	clear	clear	solid		
